Measured values: patent US12391672B2, “Solid forms comprising (S)-4-(4-(4-(((2-(2,6-dioxopiperidin-3-yl)-1-oxoisoindolin-4-yl)oxy)methyl)benzyl)piperazin-1-yl)-3-fluorobenzonitrile and salts thereof, and compositions comprising and methods of using the same” (Celgene Corporation, priority 2019, dated 2025)
In brackets after ≈: the same amount, converted by molar mass. Several values for one entry are separate records, joined by “and”; a condition that tells them apart may be missing. Equal values may be shown once.

Key:
Type in all cases: physicochemical
[1] = Dynamic vapor sorption / hygroscopicity; details: for hygroscopicity: DVS, class by mass gain at 85% r.h.; for solid form after DVS cycle: after the DVS humidity cycle
Protocol: Projekt Messtechnik (now ProUmid) SPS11-100n. The sample was placed on an aluminum holder on top of a microbalance and allowed to equilibrate at 50% r.h. before starting one of the following pre-defined humidity programs (1 cycle): • hold 2 h at 50% r.h., • decrease humidity −5% r.h. h^−1 for 10 h (i.e., from 50% r.h. to 0% r.h.), • hold 5 h at […]., • increase humidity +5% r.h. h^−1 for 19 h (i.e., from 0% r.h. to 95% r.h.), • hold 5 h at 95% r.h., • decrease humidity −5% r.h. h^−1 for 9 h (i.e., from 95% r.h. to 50% r.h.), • hold 2 h at 50% r.h. or • hold 2 h at 50% r.h., • increase humidity +5% r.h. h^−1 for 9 h (i.e., from 50% r.h. to 95% r.h.), • hold 5 h at 95% r.h., • decrease humidity −5% r.h. h^−1 for 19 h (i.e., from 95% r.h. to 0% r.h.), • hold 5 h at 0% r.h., • increase humidity +5% r.h. h^−1 for 10 h (i.e., from 0% r.h. to 50% r.h.), • hold 2 h at 50% r.h.
The hygroscopicity was classified based on the mass gain at 85% r.h. relative to the initial mass as follows: deliquescent (sufficient water adsorbed to form a liquid), very hygroscopic (mass increase of […]), hygroscopic (mass increase of <15% but ≥2%), slightly hygroscopic (mass increase of <2% but ≥0.2%), or non-hygroscopic (mass increase of <0.2%).

[2] = Solubility determination (15 minutes at room temperature, HPLC)
Protocol: 1 mL of buffer or of ultrapure (resistivity≥18.2 Mf cm) water was added to a pre-weighed, approximately twenty milligram aliquot of the substance to be measured. The resulting suspensions were stirred for 15 minutes at room temperature with magnetic stirrers. The suspensions were centrifuged and filtered through Millipore 0.2 μm PVDF filters, and the concentration of each filtrate (i.e., saturated solution) was determined using a general HPLC method. The pH of each saturated solution was measured with a Metrohm 713 pH meter.
To assess whether Form K and Form K′ are likely to have different bioavailabilities, comparative solubility measurements were carried out in physiologically relevant media. Samples of Form K and Form K′ were separately equilibrated in pure water, pH 2.0 buffer, and pH 6.8 buffer for fifteen minutes, and the solids were then separated from the solvents. The concentration of the compound in the filtrate (i.e., the solubility) was assessed in each case, and the solid residues were also monitored by powder X-ray diffraction. All six solid residues correspond to Form K, confirming that Form K′ rapidly incorporates water into its lattice when suspended in an aqueous environment even when the solubility is low. While the solubilities in pure water and at pH 6.8 were below the limit of quantitation of 0.0001 mg/mL, the solubilities at pH 2.0 could be measured. […] Thus, the bioavailabilities of the two forms are expected to be similar, and precise control of the water content (and, thereby, the solid form) is presumably not necessary from a scientific point of view. Given that the critical water activity is in the range aH2O=0.11-0.17, the hydrated Form K is likely to be the more easily stabilized of the two forms under ambient laboratory conditions.

[3] = Competitive slurry and slurry stability experiments; details: water, prolonged stirring
Protocol: Form B was obtained at room temperature while form C was obtained at 45° C. in acetone alone.
The HBr salt was largely insoluble in various buffers when 1 mg/mL slurries were prepared and the mother liquor concentration determined (by HPLC): <0.05 mg/mL in all buffers tested.

[4] = Solid state stability under accelerated storage conditions
Protocol: Form A was not isolated directly as a wet cake but formed only upon drying of Form E in polymorphism studies. […] Small quantities of Form A were generated by dissolving a crude Compound 1 in MEK at high temperature, followed by fast cooling to room temperature, filtration and drying. DSC and TGA data were obtained for samples of Form A and following storage for 1 week at 60° C. and 60° C./75% RH. […] TGA analysis confirmed that this broad endotherm was most likely due to moisture uptake under the accelerated storage conditions. Most of the weight loss of 0.82% in this sample occurred in a single step at less than 75° C. By contrast, weigh loss was a two-step process at the initial time point. […] The residual solvent initially present in the sample was lost upon storage of the sample at 60° C. (0.13% weight loss between 25 to 150° C.).
Form B could be obtained from a process involving methyl acetate. […] HPLC traces were taken of the samples of Form B and following storage for 2 week at 60° C. and 60° C./75% RH. […] Several small degradation products were seen to grow especially in the sample stored at 60° C. Chiral instability was also observed in the sample stored at 60° C./75% RH.
Physical stability: Visually, all samples of Form K were white colored powder with no apparent change in color in the samples stored under accelerated conditions (40° C., 40° C./75% RH, 60° C., 60° C./75% RH and sample stored in light chamber in clear vials exposed to light and covered in aluminum foil) for 14 d relative to the sample stored refrigerated and under ambient conditions.
Solid state chemical stability: HPLC analysis were performed on Form K samples stored under the accelerated stability conditions. […] Based on the HPLC analysis data, there is a measurable but small change in the chemical stability of Form K under the accelerated conditions of temperature, humidity and exposure to light over the 14 d period.
Solid state chiral stability: Chiral stability of Form K samples stored under accelerated stability conditions was tested. There was ˜2.9% of the R-enantiomer (97.1 area % of the active S-isomer) in the initial sample. […]
The chiral purity (area % of S-isomer) remained […] under the accelerated stability conditions.

[5] = Solubility of polymorphic forms in physiologically relevant media and final pH
Text: Solubility data of the several polymorphic forms of Compound 1 in physiologically relevant media and the final pH of these solutions are summarized in the following tables.

[6] = Critical water activity of hydrochloride Form L and Form N; details: for form after slurry (XRPD): water/acetone
Protocol: Determination of critical water activity for Form L and Form N: 50 mg of Form L was suspended in 0.5-1 ml of water/acetone solution with specific water activity. The solutions were stirred at RT or 60′° C. Form conversion was monitored by XRPD over 2 weeks.

[7] = Storage at controlled relative humidities (Form K / Form K′)
Text: It was noticed that after Form K was dried, the XRPD peaks of Form K shifted to a higher value and the resulting XRPD pattern is called Form K′. To further understand the relationships between the two forms, free base Form K and Form K′ were placed on XRPD sample holders and stored in a closed Jars with saturated salt solutions for RH controls at ambient temperature, respectively. […] The XRPD diffractograms of the samples after 2-day storage are presented in FIG. 132 and FIG. 133, respectively. […] Since the peaks of Form K shifted to higher 2-theta value as Form K loses water molecules to Form K′, Form K and Form K′ are on a continuum.

[8] = relative humidity from about 5% to about 95%

Cl.N#Cc1ccc(N2CCN(Cc3ccc(COc4cccc5c4CN(C4CCC(=O)NC4=O)C5=O)cc3)CC2)c(F)c1 (centres unmarked)
hygroscopicity [1]: hygroscopic (hygroscopic (mass increase of <15% but ≥2%))
solid form after DVS cycle [1]: remains as Form A
DVS mass increase [1, 8]: about 11.7%
aqueous solubility for the free base component ([2]; water, sample changed (solid-form transformation or gel), value may not represent the initial form): 4.1 mg/mL and 7.2 mM

N#Cc1ccc(N2CCN(Cc3ccc(COc4cccc5c4CN([C@H]4CCC(=O)NC4=O)C5=O)cc3)CC2)c(F)c1 [Form C of a free base of Compound 1]
competitive slurry of Form C and Form K [3]: gradual conversion of Form C to Form K
hygroscopicity ([1]; listed as Form C): hygroscopic (hygroscopic (mass increase of <15% but ≥2%))
DVS mass increase ([1]; relative humidity from about 5% to about 95%, listed as Form C): about 8.3%
physical and chemical stability ([4]; accelerated stability conditions): physically and chemically stable
Solubility ([5]; FaSSIF): 0.001 mg/mL (≈ 1.76 µM)
Solubility ([5]; FeSSiF, listed as Form C): 0.031 mg/mL (≈ 54.6 µM)
Solubility ([5]; SGF with pepsin, listed as Form C): 0.427 mg/mL (≈ 752 µM)
Solubility ([5]; Water): <LOQ
Solubility ([5]; pH 1 buffer HC1/NaC1, listed as Form C): 0.108 mg/mL (≈ 190 µM)
Solubility ([5]; pH 3 buffer (phosphate), listed as Form C): 0.277 mg/mL (≈ 488 µM)
Solubility ([5]; pH 4 buffer (acetate), listed as Form C): 0.065 mg/mL (≈ 115 µM)
Solubility ([5]; pH 5 buffer (acetate), listed as Form C): 0.003 mg/mL (≈ 5.29 µM)
Final pH ([5]; solubility sample in FaSSIF, listed as Form C): 6.44
Final pH ([5]; solubility sample in FeSSiF, listed as Form C): 5.05
Final pH ([5]; solubility sample in SGF with pepsin, listed as Form C): 1.29
Final pH ([5]; solubility sample in Water, listed as Form C): 6.86
Final pH ([5]; solubility sample in pH 1 buffer HC1/NaC1, listed as Form C): 1.07
Final pH ([5]; solubility sample in pH 3 buffer (phosphate), listed as Form C): 3.31
Final pH ([5]; solubility sample in pH 4 buffer (acetate), listed as Form C): 4.14
Final pH ([5]; solubility sample in pH 5 buffer (acetate), listed as Form C): 5.11

N#Cc1ccc(N2CCN(Cc3ccc(COc4cccc5c4CN([C@H]4CCC(=O)NC4=O)C5=O)cc3)CC2)c(F)c1.O=S(=O)(O)c1ccccc1 [Form B of a besylate salt of Compound 1]
hygroscopicity [1]: slightly hygroscopic (slightly hygroscopic (mass increase of <2% but ≥0.2%))
solid form after DVS cycle [1]: remains as Form B
DVS mass increase [1, 8]: about 1.75%
physical stability (XRPD) ([4]; 40° C., 40° C./75% RH, 60° C., 60° C./75% RH, and under light for 14 days): physically stable
chiral purity (area % of S-isomer) ([4]; accelerated stability conditions, 14 days): above 99%
Chemical purity (HPLC) on storage ([4]; accelerated stability conditions, 14 days, peak grows with temperature and humidity): showed degradation peak

Cl.N#Cc1ccc(N2CCN(Cc3ccc(COc4cccc5c4CN([C@H]4CCC(=O)NC4=O)C5=O)cc3)CC2)c(F)c1
critical water activity (Form L to Form N) ([6]; 60° C.): 0.4-0.5
critical water activity (Form L to Form N) ([6]; RT): 0.2-0.4
form after slurry (XRPD) ([6]; Aw 0.1, RT): Form L
form after slurry (XRPD) ([6]; Aw 0.2, 60° C.): Form L
form after slurry (XRPD) ([6]; Aw 0.2, RT): Form L
form after slurry (XRPD) ([6]; Aw 0.3, 60° C.): Form L
form after slurry (XRPD) ([6]; Aw 0.3, RT): Form AA
form after slurry (XRPD) ([6]; Aw 0.4, 60° C.): Form L
form after slurry (XRPD) ([6]; Aw 0.4, RT): Form N
form after slurry (XRPD) ([6]; Aw 0.5, 60° C.): Form N
form after slurry (XRPD) ([6]; Aw 0.5, RT): Form N
hygroscopicity [1]: slightly hygroscopic (slightly hygroscopic (mass increase of <2% but ≥0.2%))
solid form after DVS cycle [1]: remains as Form L
DVS mass increase ([1]; relative humidity from about 0% to about 95%): about 0.6%

N#Cc1ccc(N2CCN(Cc3ccc(COc4cccc5c4CN([C@H]4CCC(=O)NC4=O)C5=O)cc3)CC2)c(F)c1 [Form D of a free base of Compound 1]
hygroscopicity ([1]; listed as Form D): slightly hygroscopic (slightly hygroscopic (mass increase of <2% but ≥0.2%))
solid form after DVS cycle ([1]; listed as Form D): a mixture of Form B and Form E
DVS mass increase ([1]; relative humidity from about 5% to about 95%, listed as Form D): about 3.0%

N#Cc1ccc(N2CCN(Cc3ccc(COc4cccc5c4CN([C@H]4CCC(=O)NC4=O)C5=O)cc3)CC2)c(F)c1 [Form K′ of a free base of Compound 1]
form conversion on storage (XRPD) ([7]; 22% RH or above, ambient temperature): converts to K
PXRD result after storage ([7]; stored at 17% r.h. and r.t. for 2.5 d): Form K
solubility at pH 2.0 ([2]; pH 2.0 buffer, fifteen minutes): 0.93 mg/mL
solid residue after solubility measurement (powder X-ray diffraction) ([2]; pure water, pH 2.0 buffer and pH 6.8 buffer, fifteen minutes): Form K

Cl.N#Cc1ccc(N2CCN(Cc3ccc(COc4cccc5c4CN([C@H]4CCC(=O)NC4=O)C5=O)cc3)CC2)c(F)c1 [HC1 Salt]
Solubility ([5]; FaSSIF): 0.001 mg/mL
Solubility ([5]; FeSSiF): 0.094 mg/mL
Solubility ([5]; SGF with pepsin): 0.295 mg/mL
Solubility ([5]; pH 1 buffer HC1/NaC1): 0.071 mg/mL
Solubility ([5]; pH 3 buffer (phosphate)): 0.149 mg/mL
Solubility ([5]; pH 4 buffer (acetate)): 0.124 mg/mL
Solubility ([5]; pH 5 buffer (acetate)): 0.017 mg/mL
Final pH ([5]; solubility sample in FaSSIF): 5.96
Final pH ([5]; solubility sample in FeSSiF): 4.99
Final pH ([5]; solubility sample in SGF with pepsin): 1.28
Final pH ([5]; solubility sample in pH 1 buffer HC1/NaC1): 1.05
Final pH ([5]; solubility sample in pH 3 buffer (phosphate)): 3.05
Final pH ([5]; solubility sample in pH 4 buffer (acetate)): 4.00
Final pH ([5]; solubility sample in pH 5 buffer (acetate)): 4.83
